Holding throughout (format): biochemical
One assay deals with T1, recombinant PRL-3 (Homo sapiens, UniProt O75365).
T1 construct: 6xHis (N, cleaved yes); made in house; host or cells: E. coli One Shot BL21 Star
In words: In vitro phosphatase assay (DiFMUP hydrolysis), PRL-3. Also: test concentration or dose not given here.

For a further assay, the target named is T2, recombinant PRL-2 (Homo sapiens, UniProt Q12974).
T2 construct: 6xHis (N, cleaved yes); made in house; host or cells: E. coli One Shot BL21 Star
T2 sequence (Q12974 1-167): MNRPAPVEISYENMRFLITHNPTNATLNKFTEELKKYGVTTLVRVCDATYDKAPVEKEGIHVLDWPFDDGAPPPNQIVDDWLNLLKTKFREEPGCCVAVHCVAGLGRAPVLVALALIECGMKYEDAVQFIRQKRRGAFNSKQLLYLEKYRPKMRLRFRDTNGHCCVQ
As to the kind of experiment: In vitro phosphatase assay (DiFMUP hydrolysis), PRL-2.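 Also: PRL-2 activity read as DiFMUP hydrolysis after 20 min at room temperature with drug, enzyme first pre-reduced at 4 °C for 20 min.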

Another assay deals with T3, recombinant PRL-1 (Homo sapiens, UniProt Q93096).
T3 construct: 6xHis (N, cleaved yes); made in house; host or cells: E. coli One Shot BL21 Star
T3 sequence (Q93096 1-173): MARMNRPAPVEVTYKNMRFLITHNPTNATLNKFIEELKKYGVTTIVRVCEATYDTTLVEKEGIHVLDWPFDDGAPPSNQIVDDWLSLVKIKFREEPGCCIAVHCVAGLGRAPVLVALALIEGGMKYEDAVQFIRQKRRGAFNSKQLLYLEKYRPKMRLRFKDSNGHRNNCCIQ
As to the kind of experiment: In vitro phosphatase assay (DiFMUP hydrolysis), PRL-1. Also: test concentration or dose not given here.

Setting [1] is: FDA-approved drug screen, compared to DMSO.

Results on 16 compounds are retold here after paper PMC8119466, “A screen of FDA-approved drugs identifies inhibitors of protein tyrosine phosphatase 4A3 (PTP4A3 or PRL-3)” (Scientific Reports, 2021).

Read-outs that look alike come from different tables or passages of the source.

T1 sequence (O75365 whole entry): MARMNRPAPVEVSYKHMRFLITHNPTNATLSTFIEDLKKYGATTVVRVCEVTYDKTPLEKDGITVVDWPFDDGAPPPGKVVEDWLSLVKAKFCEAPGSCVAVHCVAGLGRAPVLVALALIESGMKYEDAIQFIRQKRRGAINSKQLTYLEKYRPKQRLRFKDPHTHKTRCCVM
Experimental for recombinant PRL-2: Briefly, protein was diluted in reaction buffer and allowed to incubate at 4 °C for 20 min to allow for full reduction of the active site. DiFMUP, drug, and protein were added, and plates were incubated for 20 min at room temperature. Fluorescence intensities were measured on a Cytation 5 plate reader (Biotek) at an EX:360 nm and EM:460 nm. […] Inhibition selectivity for PRLs over a panel of other phosphatases was determined using PhosphataseProfiler (Eurofins, Cat # PP260).

In the case of `COC(=O)Nc1nc2cc(C(=O)c3ccc(F)cc3)ccc2[nH]1` [Flubendazole], the “% Phosphatase Activity (compared to DMSO) PRL-3” value on recombinant PRL-3 (setting [1]) is 92%. In addition, the “% Phosphatase Activity (compared to DMSO) PRL-2” value on recombinant PRL-2 (setting [1]) was 103%. Further, the “% Phosphatase Activity (compared to DMSO) PRL-1” value at recombinant PRL-1 (setting [1]) amounted to 91%.
Taken in the same sequence, the figures for `Nc1[nH]c(=O)ncc1F` [Flucytosine] were 74%, 92% and 99%.
Taken in the same sequence, the figures for `Nc1nc(F)nc2c1ncn2[C@@H]1O[C@H](COP(=O)(O)O)[C@@H](O)[C@@H]1O` [Fludarabine Phosphate] were 70%, 91% and 97%.
For `Nc1nc(F)nc2c1ncn2[C@@H]1O[C@H](CO)[C@@H](O)[C@@H]1O` [Fludarabine], in that order: 94%, 119% and 110%.
With `O=C(O)c1ccccc1Nc1cccc(C(F)(F)F)c1` [Flufenamic acid], on recombinant PRL-3 (setting [1]), the “% Phosphatase Activity (compared to DMSO) PRL-3” value came out at 69%. Moreover, the “% Phosphatase Activity (compared to DMSO) PRL-2” value on recombinant PRL-2 (setting [1]) was 85%. Moreover, the “% Phosphatase Activity (compared to DMSO) PRL-1” value at recombinant PRL-1 (setting [1]) was found to be 81%.
For `CCOC(=O)c1ncn2c1CN(C)C(=O)c1cc(F)ccc1-2` [Flumazenil], in that order: 69%, 102% and 106%.
For `CC1CCc2cc(F)cc3c(=O)c(C(=O)O)cn1c23` (stereo not drawn) [Flumequine], in that order: 96%, 112% and 122%.
Taken in the same sequence, the figures for `Cl.Cl.Fc1ccc(C(c2ccc(F)cc2)N2CCN(C/C=C/c3ccccc3)CC2)cc1` [Flunarizine 2HCl] were 101%, 107% and 111%.
In the case of `CNC[C@H](O)[C@@H](O)[C@H](O)[C@H](O)CO.Cc1c(Nc2ncccc2C(=O)O)cccc1C(F)(F)F` [Flunixin Meglumin], the “% Phosphatase Activity (compared to DMSO) PRL-3” value on recombinant PRL-3 (setting [1]) is 80%. For the same compound, the “% Phosphatase Activity (compared to DMSO) PRL-2” value at recombinant PRL-2 (setting [1]) was determined as 88%. In addition, the “% Phosphatase Activity (compared to DMSO) PRL-1” value at recombinant PRL-1 (setting [1]) turned out to be 94%.
Taken in the same sequence, the figures for `CC1(C)O[C@@H]2C[C@H]3[C@@H]4C[C@H](F)C5=CC(=O)C=C[C@]5(C)[C@@]4(F)[C@@H](O)C[C@]3(C)[C@]2(C(=O)CO)O1` [Fluocinolone Acetonide] were 82%, 111% and 110%.
Take `CC(=O)OCC(=O)[C@@]12OC(C)(C)O[C@@H]1C[C@H]1[C@@H]3C[C@H](F)C4=CC(=O)C=C[C@]4(C)[C@@]3(F)[C@@H](O)C[C@@]12C` [Fluocinonide]: the “% Phosphatase Activity (compared to DMSO) PRL-3” value on recombinant PRL-3 (setting [1]) is reported as 89%. The “% Phosphatase Activity (compared to DMSO) PRL-2” value on recombinant PRL-2 (setting [1]) is 92%. Besides, the “% Phosphatase Activity (compared to DMSO) PRL-1” value at recombinant PRL-1 (setting [1]) is given as 91%.
Regarding `CC(=O)O[C@]1(C(C)=O)CC[C@H]2[C@@H]3C[C@H](C)C4=CC(=O)C=C[C@]4(C)[C@@]3(F)[C@@H](O)C[C@@]21C` [Fluorometholone Acetate], the “% Phosphatase Activity (compared to DMSO) PRL-3” value at recombinant PRL-3 (setting [1]) is recorded as 79%. In addition, the “% Phosphatase Activity (compared to DMSO) PRL-2” value at recombinant PRL-2 (setting [1]) is recorded as 96%. Further, the “% Phosphatase Activity (compared to DMSO) PRL-1” value on recombinant PRL-1 (setting [1]) was 91%.
For `CNCCC(Oc1ccc(C(F)(F)F)cc1)c1ccccc1.Cl` (stereo not drawn) [Fluoxetine HCl], in that order: 68%, 105% and 93%.
As for `C[C@]1(O)CC[C@H]2[C@@H]3CCC4=CC(=O)CC[C@]4(C)[C@@]3(F)[C@@H](O)C[C@@]21C` [Fluoxymesterone], the “% Phosphatase Activity (compared to DMSO) PRL-3” value at recombinant PRL-3 was 76%. In addition, the “% Phosphatase Activity (compared to DMSO) PRL-2” value at recombinant PRL-2 stood at 102%. The “% Phosphatase Activity (compared to DMSO) PRL-1” value on recombinant PRL-1 stood at 90%.
On to `Cl.Cl.OCCN1CCN(CCCN2c3ccccc3Sc3ccc(C(F)(F)F)cc32)CC1` [Fluphenazine (dihydrochloride)], for which, on recombinant PRL-3 (setting [1]), the “% Phosphatase Activity (compared to DMSO) PRL-3” value was determined as 88%. In addition, the “% Phosphatase Activity (compared to DMSO) PRL-2” value on recombinant PRL-2 (setting [1]) came to 101%. Further, the “% Phosphatase Activity (compared to DMSO) PRL-1” value on recombinant PRL-1 (setting [1]) is on record as 94%.
On to `CC(C(=O)O)c1ccc(-c2ccccc2)c(F)c1` (stereo not drawn) [Flurbiprofen], for which, at recombinant PRL-3 (setting [1]), the “% Phosphatase Activity (compared to DMSO) PRL-3” value was found to be 73%. On recombinant PRL-2 (setting [1]), the “% Phosphatase Activity (compared to DMSO) PRL-2” value turned out to be 89%. The “% Phosphatase Activity (compared to DMSO) PRL-1” value on recombinant PRL-1 (setting [1]) came to 97%.
